Experimental data as given in US20260049055A1, “SOLID FORMS OF […] […] USES THEREOF” (Sensorium Therapeutics, Inc., priority 2022, published 2026).

Key:
[1] = biological target: sodium-dependent serotonin transporter (SERT) (Homo sapiens, UniProt P31645); conditions: reported for naturally occurring material from Sceletium tortuosum; cited from earlier work
Chain of sodium-dependent serotonin transporter (SERT) (P31645 whole entry, species assumed): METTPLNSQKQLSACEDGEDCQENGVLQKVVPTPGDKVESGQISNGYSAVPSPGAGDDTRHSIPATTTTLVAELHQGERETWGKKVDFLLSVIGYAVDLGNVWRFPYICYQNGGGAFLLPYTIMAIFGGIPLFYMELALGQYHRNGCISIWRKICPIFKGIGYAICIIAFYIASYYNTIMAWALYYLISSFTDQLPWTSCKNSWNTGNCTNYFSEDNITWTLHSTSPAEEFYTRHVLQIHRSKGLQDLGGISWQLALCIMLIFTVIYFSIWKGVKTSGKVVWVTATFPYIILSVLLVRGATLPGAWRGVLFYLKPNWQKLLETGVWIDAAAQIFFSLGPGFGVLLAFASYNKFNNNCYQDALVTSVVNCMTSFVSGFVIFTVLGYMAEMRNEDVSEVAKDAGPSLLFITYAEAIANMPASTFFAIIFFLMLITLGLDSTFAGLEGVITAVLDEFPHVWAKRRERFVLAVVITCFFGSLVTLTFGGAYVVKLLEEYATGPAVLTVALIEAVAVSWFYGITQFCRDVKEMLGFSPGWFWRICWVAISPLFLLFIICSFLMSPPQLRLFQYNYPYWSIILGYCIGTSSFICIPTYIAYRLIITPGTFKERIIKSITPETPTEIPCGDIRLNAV

[2] = Solubility of Freeform Form A in solvents; type: physicochemical
Text: Freeform Form A was a gum material. The material had the solubility shown below:

| Compound | serotonin (5-HT) uptake inhibition, in words [1] | Solubility (mg/mL) ([2]; solvent 1,4-Dioxane) | Solubility (mg/mL) ([2]; solvent 2-MeTHF) | Solubility (mg/mL) ([2]; solvent ACN) | Solubility (mg/mL) ([2]; solvent Acetone) | Solubility (mg/mL) ([2]; solvent CPME) | Solubility (mg/mL) ([2]; solvent DCM) | Solubility (mg/mL) ([2]; solvent EtOH) | Solubility (mg/mL) ([2]; solvent H2O) | Solubility (mg/mL) ([2]; solvent IPA) | Solubility (mg/mL) ([2]; solvent IPAc) | Solubility (mg/mL) ([2]; solvent MIBK) | Solubility (mg/mL) ([2]; solvent MTBE) | Solubility (mg/mL) ([2]; solvent MeOH) | Solubility (mg/mL) ([2]; solvent THF) |
| --- | --- | --- | --- | --- | --- | --- | --- | --- | --- | --- | --- | --- | --- | --- | --- |
| COc1ccc([C@@]23CCC(=O)C[C@@H]2N(C)CC3)cc1OC [Compound 1, (3aS,7aS)-3a-(3,4-dimethoxyphenyl)-1-methyl-2,3,4,5,7,7a-hexahydroindol-6-one] | serotonin (5-HT) uptake inhibitory activity |  |  |  |  |  |  |  |  |  |  |  |  |  |  |
| COc1ccc([C@@]23CCC(=O)C[C@@H]2N(C)CC3)cc1OC [Freeform Form A, (3aS,7aS)-3a-(3,4-dimethoxyphenyl)-1-methyl-2,3,4,5,7,7a-hexahydroindol-6-one] |  | S > 40.0 mg/mL | S > 40.0 mg/mL | S > 44.0 mg/mL | S > 40.0 mg/mL | S > 40.0 mg/mL | S > 42.0 mg/mL | S > 42.0 mg/mL | S > 42.0 mg/mL | S > 38.0 mg/mL | S > 36.0 mg/mL | S > 38.0 mg/mL | S > 40.0 mg/mL | S > 36.0 mg/mL | S > 44.0 mg/mL |
